# Results published in patent publication US10517889B2, “Modulators of SMAD7 expression” (Ionis Pharmaceuticals, Inc., priority 2017, dated 2019).
# Experiments:
# murine Smad7 mRNA = experiment: Dose-dependent inhibition of murine Smad7 mRNA in bEND cells, electroporation (Example 5, Study 2); type: cell-based, mouse; settings: in words
# Protocol: Many of the Ionis designed oligonucleotides as well as ION 736697/Mongersen are complementary to mouse Smad7 mRNA. […] After a treatment period of approximately 16 hours, the cells were washed and lyzed and RNA on 384-well Pall plates with DNase I treatment. Smad7 mRNA levels were measured by quantitative real-time PCR. Primer probe set RTS1114 (forward sequence […], designated herein as SEQ ID NO: 8; reverse sequence […], designated herein as SEQ ID NO: 9; probe sequence […], designated herein as SEQ ID NO: 10) was used to measure murine Smad7 mRNA levels. Smad7 mRNA levels were adjusted according to total RNA content, as measured by RIBOGREEN®. Results are presented as percent inhibition of Smad7 mRNA expression, relative to untreated control cells.
# Many of the Ionis oligonucleotides had greater potency than ION 736697/Mongersen.
# [1] = Plasma chemistry markers after oral gavage in beagle dogs (Example 12); settings: 200 mg by oral gavage for 4 weeks, day 30, in words
# Protocol: The study was conducted to evaluate the tolerability and pharmacodynamics of select human SMAD7 antisense oligonucleotides in beagle dogs following 4 weeks of treatment. The dogs were administered oligonucleotides by oral gavage.
# (§1) Groups of 24-25 week old male beagle dogs were administered 200 mg Ionis human SMAD7 oligonucleotide by oral gavage once a week for 4 weeks. There were 4 animals per group. A control group of dogs received oral administration of distilled water. Dogs were sacrificed on day 30 approximately 48 hours after the final dose and organs and plasma were harvested for further analysis.
# To evaluate the effect of Ionis SMAD7 oligonucleotides on liver and kidney function, approximately 1.5 mL of blood samples were collected and put into tubes without anticoagulant for serum separation. The tubes were kept at room temperature for a minimum of 90 min and then centrifuged (approximately 3,000 rpm for 10 min) to obtain serum. Plasma levels of transaminases, albumin, bilirubin, and BUN were measured using an automated clinical chemistry analyzer (Toshiba 200FR Neo chemistry analyzer, Toshiba Co., Japan).
# [2] = Plasma chemistry markers after subcutaneous administration in beagle dogs (Example 8); settings: 30 mg/kg subcutaneously, day 31, in words
# Protocol: Groups of 24-25 week old male beagle dogs were injected subcutaneously with 30 mg/kg ION Ionis oligonucleotide. There were 4 animals per group. Dogs were injected every two days for the first week (day 1, 3, and 5) and once weekly thereafter (days 8, 15, 22, and 29). A control group of dogs received subcutaneous injections of PBS. Dogs were sacrificed on day 31 approximately 48 hours after the final dose and organs and plasma were harvested for further analysis.
# To evaluate the effect of Ionis SMAD7 oligonucleotides on liver and kidney function, plasma levels of transaminases, albumin, creatine and BUN were measured using an automated clinical chemistry analyzer (Toshiba 200FR Neo chemistry analyzer, Toshiba Co., Japan).
# [3] = Pharmacokinetics: oligonucleotide concentration in tissues after oral gavage in beagle dogs (Example 12); type: in vivo
# Protocol: There were 4 animals per group.
# Canine tissue exposure following oral administration of the Ionis SMAD7 oligonucleotides was measured in various organs and intestinal tissues.
# Plasma concentrations of Ionis oligonucleotides were also measured on Day 28 at various time points.
# mouse Smad7 mRNA [4] = experiment: Murine Smad7 mRNA expression after subcutaneous administration in BALB/c mice (Example 10); type: in vivo; settings: 50 mg/kg subcutaneous once a week for 4 weeks, 24 hours after last dose
# Protocol: The objective of this study was to evaluate the efficacy of Ionis SMAD7 antisense oligonucleotides compared to ION 736697/Mongersen in BALB/c mice following 4 weeks of treatment. Both ION 830025 and ION 798781 are cross-reactive with mouse Smad7 mRNA.
# Groups of BALB/c mice were subcutaneously administered 50 mg/kg of Ionis SMAD7 oligonucleotides once a week for 4 weeks. Each group contained 4 mice. One group of mice was administered PBS once a week for 4 weeks. […]
# [5] = system: human peripheral blood mononuclear cells (PBMCs); experiment: Human PBMC activation assay, cytokine levels (IL-10, IL-6, MCP-1, TNF-α) in supernatant after 24 hours (Example 9); settings: human PBMCs, 24 hours, in words
# Protocol: Ionis SMAD7 oligonucleotides were tested in an in vitro assay for potential immunostimulatory properties in an in vitro human peripheral blood mononuclear cell (PBMC) activation assay.
# Blood samples were collected from healthy human volunteers in heparinized vials and mixed well. Human PBMCs were isolated by gradient centrifugation using Ficoll-Histopaque. The cells were washed, counted and resuspended in medium. The PBMCs were plated in a 24-well culture plate and various concentrations of oligonucleotides were added to the media. An oligonucleotide historically known to promote an inflammatory response was used as a positive control, whereas an oligonucleotide known not to be pro-inflammatory was used as a negative control. […] The supernatants were collected after 24 hours and analyzed for cytokine levels using MSD platform.
# human SMAD7 mRNA = experiment: Dose-dependent inhibition of human SMAD7 mRNA expression in A431 cells, oligonucleotide added without transfection (Example 5, Study 1); type: cell-based; settings: SMAD7 mRNA, in words
# Protocol: The newly designed compounds disclosed herein are cEt-modified antisense oligonucleotides. […] The studies described below show a comparison of select cEt-modified gapmers and ION0736697/Mongersen.
# A431 cells were plated in collagen I-coated 96-well plates in DMEM with […]. Immediately after plating, 0.08 μM, 0.25 μM, 0.74 μM, 2.22 μM, 6.67 μM, or 20.00 μM concentrations of antisense oligonucleotide were added. The plates were shaken briefly before incubating at 37° C. and 10% CO2. After a treatment period of approximately 48 hours, the cells were washed and lyzed and RNA on 384-well Pall plates with DNase I treatment. SMAD7 mRNA levels were measured by quantitative real-time PCR. Primer probe set RTS5062 was used to measure human SMAD7 mRNA levels. SMAD7 mRNA levels were adjusted according to total RNA content, as measured by RIBOGREEN®. Results are presented as percent inhibition of SMAD7 mRNA expression, relative to untreated control cells.
# All Ionis oligonucleotides had greater potency than ION 736697/Mongersen.
# [6] = Tissue and organ histopathology after oral gavage in CD-1 mice (Example 7); type: in vivo; settings: daily oral gavage 500 mg/kg for one month, in words
# Protocol: Groups of 7-8 week old male CD-1 mice were given an oral gavage dose once daily for 4 weeks of 500 mg/kg of Ionis SMAD7 oligonucleotides. Each group contained 8 mice. One group of male CD-1 mice was administered saline by oral gavage daily.
# Histopathology evaluations were performed on the mice treated with Ionis oligonucleotides to evaluate any tissue damage in the liver (with gallbladder), kidneys, heart, spleen, thymus, mesenteric lymph nodes, and different parts of the GI tract, including duodenum, ileum, and colon (proximal and distal). Tissues were collected and fixed in 10% neutral-buffered formalin, embedded in paraffin, sectioned, and stained with hematoxylin and eosin. All the tissues were histologically unremarkable in all mice.
# [7] = Organ weights after oral gavage in beagle dogs (Example 12); settings: 200 mg by oral gavage for 4 weeks, day 30, in words
# Protocol: as §1
# mouse Smad7 mRNA [8] = experiment: Murine Smad7 mRNA expression after oral administration in BALB/c mice (Example 11); type: in vivo; settings: orally 500 mg/kg/day for 3 weeks, in words
# Protocol: The objective of this study was to evaluate the efficacy of Ionis SMAD7 antisense oligonucleotides in BALB/c mice following daily oral administration. The Ionis oligonucleotides are cross-reactive with mouse Smad7 mRNA.
# Groups of BALB/c mice were orally administered 500 mg/kg/day for 3 weeks of human Smad7 oligonucleotides, ION 790615, ION 798781, or ION 830025, or mouse Smad7 oligonucleotide, ION 772797 (a 3-10-3 cEt gapmer with phosphorothioate backbone and sequence […]; designated herein as SEQ ID NO: 2743). One group of mice was orally administered PBS daily for 3 weeks. Each group contained 4 mice.
# To evaluate the efficacy of the oligonucleotides, murine Smad7 mRNA expression in the liver, kidneys, duodenum, ileum, and colon was measured using primer probe set RTS1114.
# mouse Smad7 mRNA [9] = experiment: Pharmacology: mouse Smad7 mRNA expression in liver, kidney, duodenum, ileum and colon after subcutaneous administration in CD-1 mice (Example 6); type: in vivo; settings: 50 mg/kg subcutaneously twice a week for 7 weeks, in words
# Protocol: Groups of 8-9 week old male CD-1 mice were injected subcutaneously twice a week for 7 weeks with 50 mg/kg of Ionis oligonucleotides (100 mg/kg/week dose). Each group contained 4 mice. One group of male CD-1 mice was injected subcutaneously twice a week for 7 weeks with PBS. Plasma was collected for analysis on day 28.
# The pharmacological activity of the Ionis oligonucleotides in mice was assessed by measuring mouse Smad7 mRNA expression in liver, kidney, duodenum, ileum, and colon at necropsy.
# Tissue samples from all mice were analyzed for Smad7 mRNA expression using the primer probe set HTS7555 (forward sequence […], designated SEQ ID NO: 2737; reverse sequence […], designated SEQ ID NO: 2738; probe sequence […], designated SEQ ID NO: 2739), which was normalized to mRNA levels of the housekeeping gene, GAPDH. One-way ANOVA with Dunnet's comparison test was used for statistical analysis.
substance,measurement,setting,value
"ION 830025 (antisense TTTGTAAATCGAAAGC; 3-10-3 cEt gapmer, phosphorothioate, further chemistry not given here) [sodium salt]",Potency compared with ION 736697/Mongersen,murine Smad7 mRNA,more potent than ION 736697/Mongersen
same,Tolerability (plasma chemistry markers),[1],very well tolerated
same,Tolerability (plasma chemistry markers),[2],well tolerated
same,Tissue accumulation of oligonucleotide,"[3]; 200 mg by oral gavage for 4 weeks, in words",Distal colon accumulation was detected
same,"Oligonucleotide concentration in tissues, Distal colon","[3]; 200 mg oral gavage for 4 weeks, distal colon",0.1 µg/g
same,"Oligonucleotide concentration in tissues, Duodenum","[3]; 200 mg oral gavage for 4 weeks, duodenum",0.8 µg/g
same,"Oligonucleotide concentration in tissues, Ileum","[3]; 200 mg oral gavage for 4 weeks, ileum",0.3 µg/g
same,"Oligonucleotide concentration in tissues, Kidney","[3]; 200 mg oral gavage for 4 weeks, kidney",48.1 µg/g
same,"Oligonucleotide concentration in tissues, Liver","[3]; 200 mg oral gavage for 4 weeks, liver",7.8 µg/g
same,"Oligonucleotide concentration in tissues, Proximal colon","[3]; 200 mg oral gavage for 4 weeks, proximal colon",0.2 µg/g
same,"Mouse Smad7 mRNA expression (% inhibition), Colon",mouse Smad7 mRNA [4]; colon,32 % inhibition
same,"Mouse Smad7 mRNA expression (% inhibition), Duodenum",mouse Smad7 mRNA [4]; duodenum,26 % inhibition
same,"Mouse Smad7 mRNA expression (% inhibition), Ileum",mouse Smad7 mRNA [4]; ileum,14 % inhibition
same,"Mouse Smad7 mRNA expression (% inhibition), Kidney",mouse Smad7 mRNA [4]; kidney,5 % inhibition
same,"Mouse Smad7 mRNA expression (% inhibition), Liver",mouse Smad7 mRNA [4]; liver,46 % inhibition
same,Cytokine and chemokine production (immunostimulatory profile),[5],minimal cytokine and chemokine production which was similar or less than the negative control ASO
same,Potency/efficacy compared with ION 736697/Mongersen,human SMAD7 mRNA,more efficacious than ION 736697/Mongersen
same,Histopathology: oligonucleotide-related tissue alterations,[6],not associated with any antisense oligonucleotide-related tissue alterations
same,Tolerability (organ weights),[7],very well tolerated
same,Efficacy in reducing Smad7 mRNA expression,mouse Smad7 mRNA [8],efficacious in reducing Smad7 mRNA expression
same,Smad7 mRNA reduction in tissues,mouse Smad7 mRNA [9],significant Smad7 mRNA reduction in various tissues
